Laboratory results taken from US20230172206A1 (BASF SE, priority 2020, published 2023).

Experiments:
[1] = test system: Phakopsora pachyrhizi (F129L); experiment: Protective control of soybean rust on soybeans (PHAKPA P2); assay type: in vivo; conditions: for % PHAKPA (F129L) Disease level P2 at 4 ppm: protective P2, 4 ppm; for % PHAKPA (F129L) Disease level P2 at 4 ppm / % PHAKPA (F129L) Disease level P2 at 16 ppm: soybean rust F129L isolate; for % PHAKPA (F129L) Disease level P2 at 16 ppm: protective P2, 16 ppm
[2] = test system: Phakopsora pachyrhizi (F129L); experiment: Protective control of soybean rust on soybeans (PHAKPA P6); assay type: in vivo; conditions: for % PHAKPA (F129L) Disease level P6 at 4 ppm: protective P6, 4 ppm; for % PHAKPA (F129L) Disease level P6 at 4 ppm / % PHAKPA (F129L) Disease level P6 at 16 ppm: soybean rust F129L isolate; for % PHAKPA (F129L) Disease level P6 at 16 ppm: protective P6, 16 ppm
[3] = protective, inoculation 2 days after spraying, % diseased leaf area
[4] = protective, inoculation six days after spraying, % diseased leaf area

Row | SMILES | % PHAKPA (F129L) Disease level P2 at 4 ppm [1] [%] | % PHAKPA (F129L) Disease level P2 at 16 ppm [1] [%] | PHAKPA (F129L) Disease level (%) P2 at 16 ppm [1, 3] [%] | % PHAKPA (F129L) Disease level P6 at 4 ppm [2] [%] | % PHAKPA (F129L) Disease level P6 at 16 ppm [2] [%] | PHAKPA (F129L) Disease level (%) P6 at 16 ppm [2, 4] [%] | PHAKPA (F129L) Disease level (%) P2 at 4 ppm ([1]; protective, inoculation 2 days after spraying, 4 ppm, % diseased leaf area) [%] | PHAKPA (F129L) Disease level (%) P6 at 4 ppm ([2]; protective, inoculation six days after spraying, 4 ppm, % diseased leaf area) [%]
1 | CNC(=O)/C(=N/OC)c1cccc(C)c1CO/N=C(\C)c1cc(F)ccc1F [compound 131] | 0 | 0 | 0 | 2 | 0 | 0 |  | 
2 | CO/N=C(/C(=O)OC)c1cccc(C)c1CO/N=C(\C)c1ccccc1C(C)C [compound 218] | 100 | 87 |  | 100 | 100 |  |  | 
3 | CNC(=O)/C(=N/OC)c1cccc(C)c1CO/N=C(\C)c1ccccc1C1CC1 [compound 219] | 60 | 8 |  | 87 | 43 |  |  | 
4 | CNC(=O)/C(=N/OC)c1cccc(C)c1CO/N=C(\C)c1ccccc1C(C)C [compound 220] | 90 | 30 |  | 100 | 77 |  |  | 
5 | CNC(=O)/C(=N/OC)c1cccc(C)c1CO/N=C(\C)c1ccccc1CC(C)C [compound 221] | 100 | 63 |  | 100 | 100 |  |  | 
6 | CO/N=C(/C(=O)OC)c1cccc(C)c1CO/N=C(\C)c1ccccc1CC(F)(F)F [compound 222] | 100 | 57 |  | 100 | 93 |  |  | 
7 | CNC(=O)/C(=N/OC)c1cccc(C)c1CO/N=C(\C)c1ccccc1CC(F)(F)F [compound 223] | 4 | 0 |  | 28 | 0 |  |  | 
8 | CO/N=C(/C(=O)OC)c1cccc(C)c1CO/N=C(\C)c1ccccc1C#N [compound 224] | 97 | 100 |  | 100 | 100 |  |  | 
9 | CNC(=O)/C(=N/OC)c1cccc(C)c1CO/N=C(\C)c1ccccc1C#N [compound 225] | 83 | 27 |  | 100 | 97 |  |  | 
10 | CNC(=O)/C(=N/OC)c1cccc(C)c1CO/N=C(\C)c1cccc(OC/C(C)=N/OC)c1 [compound 226] | 28 | 3 |  | 57 | 7 |  |  | 
11 | CO/N=C(\C)COc1cccc(/C(C)=N/OCc2c(C)cccc2/C(=N\OC)C(=O)OC)c1 [compound 227] | 100 | 47 |  | 100 | 57 |  |  | 
12 | CNC(=O)/C(=N/OC)c1cccc(C)c1CO/N=C(\C)c1cc(Cl)cc(C(F)(F)F)c1 [compound 228] | 5 | 0 |  | 22 | 2 |  |  | 
13 | CO/N=C(/C(=O)OC)c1cccc(C)c1CO/N=C(\C)c1ccc(C)c(C(F)(F)F)c1 [compound 229] | 27 | 2 |  | 77 | 6 |  |  | 
14 | CNC(=O)/C(=N/OC)c1cccc(C)c1CO/N=C(\C)c1ccc(C)c(C(F)(F)F)c1 [compound 230] | 22 | 1 |  | 73 | 4 |  |  | 
15 | CO/C=C(/C(=O)OC)c1cccc(C)c1CO/N=C(\C)c1cccc(C(F)(F)F)c1 [compound 231] | 0 | 0 |  | 2 | 0 |  | 0 | 2
16 | CNC(=O)/C(=C/OC)c1cccc(C)c1CO/N=C(\C)c1cccc(C(F)(F)F)c1 [compound 232] | 100 | 73 |  | 100 | 83 |  |  | 
17 | CNC(=O)/C(=N/OC)c1cccc(C)c1CO/N=C(\C)c1c(F)ccc(C(F)(F)F)c1NC [compound 233] | 100 | 57 |  | 87 | 27 |  |  | 
18 | CNC(=O)/C(=N/OC)c1cccc(C)c1CO/N=C(\CC1CC1)c1cccc(C(F)(F)F)c1 [compound 234] | 53 | 18 |  | 53 | 15 |  |  | 

Row | SMILES | % PHAKPA (F129L) Disease level P2 at 4 ppm [1] [%] | % PHAKPA (F129L) Disease level P2 at 16 ppm [1] [%] | PHAKPA (F129L) Disease level (%) P2 at 16 ppm [1, 3] [%] | % PHAKPA (F129L) Disease level P6 at 4 ppm [2] [%] | % PHAKPA (F129L) Disease level P6 at 16 ppm [2] [%] | PHAKPA (F129L) Disease level (%) P6 at 16 ppm [2, 4] [%] | PHAKPA (F129L) Disease level (%) P2 at 4 ppm ([1]; protective, inoculation 2 days after spraying, 4 ppm, % diseased leaf area) [%] | PHAKPA (F129L) Disease level (%) P6 at 4 ppm ([2]; protective, inoculation six days after spraying, 4 ppm, % diseased leaf area) [%]
19 | CNC(=O)/C(=N/OC)c1cccc(C)c1CO/N=C(\CC(C)C)c1cccc(C(F)(F)F)c1 [compound 235] | 100 | 73 |  | 87 | 77 |  |  | 
20 | CO/N=C(/C(=O)OC)c1cccc(C)c1CO/N=C(\C)c1ccccc1OC(F)(F)F [compound 236] | 97 | 77 |  | 97 | 100 |  |  | 
21 | CNC(=O)/C(=N/OC)c1cccc(C)c1CO/N=C(\C)c1cc(C(F)(F)F)cc(F)c1NC [compound 238] | 100 | 53 |  | 100 | 77 |  |  | 
22 | CO/N=C(/C(=O)OC)c1cccc(C)c1CO/N=C(\C)c1cc(Br)cc(F)c1F [compound 240] | 70 | 8 |  | 73 | 3 |  |  | 
23 | CNC(=O)/C(=N/OC)c1cccc(C)c1CO/N=C(\C)c1cc(Br)cc(F)c1F [compound 241] | 3 | 0 |  | 33 | 12 |  |  | 
24 | C#Cc1cc(F)c(F)c(/C(C)=N/OCc2c(C)cccc2/C(=N\OC)C(=O)OC)c1 [compound 242] | 87 | 10 |  | 87 | 20 |  |  | 
25 | C#Cc1cc(F)c(F)c(/C(C)=N/OCc2c(C)cccc2/C(=N\OC)C(=O)NC)c1 [compound 243] | 4 | 0 |  | 37 | 1 |  |  | 
26 | CO/C=C(/C(=O)OC)c1cccc(C)c1CO/N=C(\C)c1ccccc1C(F)(F)F [compound 244] | 14 | 0 | 0 | 15 | 2 | 2 |  | 
27 | CNC(=O)/C(=N/OC)c1cccc(C)c1CO/N=C(\C)c1cc(Cl)ccc1C(F)(F)F [compound 245] | 28 | 8 |  | 13 | 2 |  |  | 
28 | CO/N=C(/C(=O)OC)c1cccc(C)c1CO/N=C(\C)c1cc(Cl)c(F)c(Cl)c1 [compound 246] | 40 | 15 |  | 77 | 7 |  |  | 
29 | CNC(=O)/C(=N/OC)c1cccc(C)c1CO/N=C(\C)c1cc(Cl)c(F)c(Cl)c1 [compound 247] | 16 | 2 |  | 33 | 8 |  |  | 
30 | CNC(=O)/C(=N/OC)c1cccc(C)c1CO/N=C(\C)c1cc(F)ccc1Br [compound 248] | 33 | 2 |  | 30 | 2 |  |  | 
31 | CNC(=O)/C(=N/OC)c1cccc(C)c1CO/N=C(\C)c1ccc(OC(F)(F)F)cc1Cl [compound 271] | 5 | 1 |  |  |  |  |  | 
32 | CNC(=O)/C(=N/OC)c1cccc(C)c1CO/N=C(\C)c1cc(C(F)(F)F)ccc1C(F)(F)F [compound 272] | 60 | 8 |  |  |  |  |  | 
33 | CNC(=O)/C(=N/OC)c1cccc(C)c1CO/N=C(\C)c1cc(C(F)(F)F)ccc1C [compound 273] | 60 | 3 |  |  |  |  |  | 
34 | CNC(=O)/C(=N/OC)c1cccc(C)c1CO/N=C(\C)c1ccccc1OCOC [compound 314] | 100 | 40 |  |  |  |  |  | 
35 | CNC(=O)/C(=N/OC)c1cccc(C)c1CO/N=C(\C)c1ccccc1OC(C)C [compound 315] | 100 | 60 |  |  |  |  |  | 
36 | CNC(=O)/C(=N/OC)c1cccc(C)c1CO/N=C(\C)c1ccccc1Oc1ccccc1 [compound 321] | 100 | 40 |  |  |  |  |  | 
